Source: patent publication US9808527B2, “Methods and compositions for treating HIV infections” (priority 2006, dated 2017)
Entries after “also recorded” stand apart in the source; their conditions may differ. Read-outs that look alike come from different tables or passages of the source.

Legend:
HIV-1LAI = test: MTT assay, MT-2 cells exposed to HIV-1LAI (acute HIV-1 infection assay); format: cell-based; conditions: for Selectivity Index: HIV-1LAI; for IC50: Human immunodeficiency virus 1, MT2, 168 h
Procedure: (§1) Drug susceptibility assay. The susceptibility of HIV-1LAI, HIV-2EHO, HIV-2ROD, to various drugs and the cytotoxicity of those drugs was determined by using the MTT assay. Briefly, MT-2 cells (2×10^4/mL) were exposed to 100 TCID50s (50% tissue culture infectious doses) of HIV-1LAI, HIV-2EHO, or HIV-2ROD in the presence or absence of various concentrations of drugs in 96-well microculture plates and were incubated at 37° C. for 7 days. After 100 μL of the medium was removed from each well, 3-(4,5-dimethylthiazol-2-yl)-2,5-diphenyltetrazolium bromide (MTT) solution (10 μL, 7.5 mg/mL in phosphate-buffered saline) was added to each well in the plate, followed by incubation at 37° C. for 4 hours. […] All assays were performed in duplicate or triplicate. To determine the sensitivity of HIV-1Ba-L, HIV-1ERS104 pre, and clinical multi-drug-resistant HIV-1 isolates and different subtypes of HIV-1 isolates to drugs, phytohemagglutinin-activated peripheral blood mononuclear cells (PHA-PBMs; 10^6/mL) were exposed to 50 TCID50 (50% tissue infectious dose) of each HIV-1 isolate and cultured in the presence or absence of various concentrations of drugs in 10-fold serial dilutions in 96-well microtiter culture plates. To determine the drug susceptibility of certain laboratory HIV-1 strains (HIV-1NL4-3), MT-4 cells were used as target cells. MT-4 cells (10^5/mL) were exposed to 100 TCID50 of wild type HIV-1NL4-3 and PI-resistant HIV-1NL4-3 in the presence or absence of various concentrations of drugs and were incubated at 37° C. On day 7 of culture, the supernatant was harvested and the amount of p24 Gag protein was determined by using a fully automated chemiluminescent enzyme immunoassay system (Lumipulse F; Fujirebio Inc., Tokyo, Japan) (22). […] All assays were performed in duplicate or triplicate.

HIV-2ROD = test: MTT assay, MT-2 cells exposed to HIV-2ROD; format: cell-based
Procedure: as §1
All assays were conducted in duplicate, and the data shown represent mean values (±1 standard deviations) derived from the results of three independent experiments.

92TH019 (E-R5) = test: p24 Gag production inhibition, PHA-PBMs, subtype E isolate 92TH019; format: cell-based, HIV-1; conditions: Human immunodeficiency virus 1, read-out: IC50 against 92TH019 (E-R5)
Procedure: as §1
(§2) The IC50 values were determined by using PHA-PBMs as target cells and the inhibition of p24 Gag protein production by each drug was used as an endpoint. All assays were conducted in duplicate, and the data shown represent mean values (±1 standard deviations) derived from the results of two or three independent experiments.

97ZA003 (C-R5) = test: p24 Gag production inhibition, PHA-PBMs, subtype C isolate 97ZA003; format: cell-based, HIV-1
Procedure: as §1, §2

[1] = biological target: T1, CFP- and YFP-tagged HIV-1 protease subunits (Human immunodeficiency virus type 1 group M subtype B, UniProt P12497); format: cell-based; conditions: Cos-7 cells; for CFP A/B ratio (CFP fluorescence after/before photobleaching): ratio <1 = dimerization blocked
T1 construct: expressed in transfected cells; host or cells: Cos-7
Procedure: After 72 hr, cultured cells were examined in the FRET-HIV-1 assay system using confocal microscopy Fluoview FV500 confocal laser scanning microscope, and CFP^A/B were determined and plotted. […] The FRET efficiency was determined following acceptor photobleaching as previously described (Bastiaens et al., EMBO 1996; Siegel et al., Science's stke 2000; Firulli et al., Nature genetics, 2005; Szczesna et al., JBC 2003). Dequenching of the donor CFP by selective photobleaching of the acceptor YFP was performed by first obtaining YFP and CFP images at the same focal plane, followed by illuminating for 3 min the same image at wavelength of 488 nm with a laser power set at the maximum intensity to bleach YFP and re-capturing the same CFP and YFP images. The changes in the CFP and YFP fluorescence intensity in the images of selected regions were examined and quantified using Olympus FV500 Image software system. Background values were obtained from the regions where no cells were present and were subtracted from the values for the cells examined in all calculations. For each chimeric protein, the data were obtained from at least three independent experiments. FRET efficiency was determined using the formula: ET=(1−(IDA/ID))×100, where IDA and ID represent the steady-state donor fluorescence in the presence and absence of the acceptor, respectively. Digitized image data obtained from the experiment were prepared for presentation using Photoshop 6.0 (Adobe systems, Mountain View, Calif.). Ratios of intensities of ECFP fluorescence after photobleaching to ECFP fluorescence prior to photobleaching were determined. The ratios of more than 1 indicate that dimerization of CFP- and YFP-tagged protease subunits occurred and those of less than 1 indicate that dimerization was blocked by the test agent.
Generation of FRET-based HIV-1 expression assay. The basic concepts of the intermolecular fluorescence resonance energy transfer (FRET)-based HIV-1-expression assay (FRET-HIV-1 assay) are shown in FIG. 7. Within a plasmid (pHIV-1NL4-3), which encodes a full-length molecular infectious HIV-1 clone, the gene encoding a cyan fluorescent donor protein (CFP) was attached to the downstream end (C-terminus) of the gene encoding an HIV-1 protease subunit through the flexible linker added (five alanines), generating pHIV-1NL4-3/CFP (FIG. 7A). Within the other plasmid (pHIV-1NL4-3), the gene encoding a yellow fluorescent acceptor protein (YFP) was attached to the downstream end of protease-encoding gene in the same manner, generating pHIV-1NL4-3/YFP. Both CFP and YFP were designed to have phenylalanine and proline in the connection with reverse transcriptase so that the protease is cleaved from reverse transcriptase when two subunits dimerize and the dimerized protease acquires enzymatic activity. […] A focused laser beam excitation of CFP (triggered by Helium-Cadmium laser) results in rapid energy transfer to YFP, and most of the fluorescence photons are emitted by YFP (Miyawaki et al. Nature 388(6645):882-887 (1997)). If the dimerization is blocked, the average distance between CFP and YFP becomes larger and the energy transfer rate is decreased and the fraction of photons emitted by YFP is lowered.
In order to interpret the energy transfer efficiency quantitatively, an acceptor photobleaching technique was used, in which the change in CFP emission quenching is measured by comparing the value before and after selectively photobleaching YFP, which prevents problems associated with variable expression levels.

HIV-1NL4-3 = test: p24 Gag production inhibition, MT-4 cells, wild-type HIV-1NL4-3; format: cell-based
Procedure: as §1

Ba-L (B-R5) = test: p24 Gag production inhibition, PHA-PBMs, subtype B Ba-L; format: cell-based, HIV-1; conditions: Human immunodeficiency virus 1, BAL, read-out: IC50 against Ba-L (B-R5)
Procedure: as §1, §2

[2] = read-out: IC50 against HIV-1LAI, MT-2 cells, 100 TCID50 of HIV-1LAI, MTT assay on day 7
[3] = Human immunodeficiency virus 2, MT2, read-out: IC50 against HIV-2ROD
[4] = Human immunodeficiency virus 1, PHA-PBMs, p24 Gag production, read-out: IC50 against 97ZA003 (C-R5)
[5] = Human immunodeficiency virus 1, MT4, read-out: IC50 against HIV-1NL4-3 (wild type)
[6] = MT-2 cells, 100 TCID50 of HIV-1LAI, MTT assay on day 7, read-out: IC50 against HIV-1LAI
[7] = Human immunodeficiency virus 2, MT2, MT-2 cells, 100 TCID50, MTT assay, read-out: IC50 against HIV-2ROD
[8] = Human immunodeficiency virus 1, MT4, MT-4 cells, 100 TCID50, p24 Gag production, read-out: IC50 against HIV-1NL4-3 (wild type)

SMILES | Selectivity Index (HIV-1LAI; MT-2 cells) | IC50 (HIV-1LAI; [2]) [nM] | IC50 (HIV-2ROD; [3]) [nM] | IC50 (92TH019 (E-R5)) [nM] | IC50 (97ZA003 (C-R5); [4]) [nM] | inhibition of protease dimerization ([1]; 1 μM) | CFP A/B ratio (CFP fluorescence after/before photobleaching) ([1]; 1 μM) | inhibition of protease dimerization ([1]; 10 μM) | IC50 (HIV-1NL4-3; [5]) [nM] | IC50 (Ba-L (B-R5); PHA-PBMs, p24 Gag production) [nM] | IC50 (HIV-1LAI; [6]) [nM] | IC50 (HIV-2ROD; [7]) [nM] | IC50 (HIV-1LAI; read-out: MTT assay (IC50, nM), Human CD4+ MT-2 cells, 100 TCID50 of HIV-1LAI, day 7) [nM] | IC50 (HIV-1NL4-3; [8]) [nM] | IC50 (97ZA003 (C-R5); Human immunodeficiency virus 1, read-out: IC50 against 97ZA003 (C-R5)) [nM] | IC50 (Ba-L (B-R5)) [nM]
COC(=O)N[C@H](C(=O)N[C@@H](Cc1ccccc1)[C@@H](O)CN(Cc1ccc(-c2ccccn2)cc1)NC(=O)[C@@H](NC(=O)OC)C(C)(C)C)C(C)(C)C [ATV, Atazanavir] | 5750 | 4.8 ± 0.1 | 13 ± 6 | 2.7 ± 0.1 | 3.4 ± 0.1 | None | 1.25±0.12 | none of these 4 PIs inhibited protease dimerization | 4.2 ± 0.4 | 1.3 ± 0.4 |  |  |  |  |  | 
CC(C)(C)NC(=O)[C@@H]1CN(Cc2cccnc2)CCN1C[C@@H](O)C[C@@H](Cc1ccccc1)C(=O)N[C@H]1c2ccccc2C[C@H]1O [IDV, indinavir] |  |  |  | 21 ± 1 | 37 ± 6 |  |  |  |  | 22 ± 5 | 48 ± 7 | 54 ± 3 |  |  |  | 
CC(C)CN(CC(O)C(Cc1ccccc1)NC(=O)OC1COC2OCCC12)S(=O)(=O)c1ccc2c(c1)OCO2 (stereo not shown) [GRL-98065] | 71,400 | ~0.5 | 4.5 ± 0.4 | 0.3 ± 0.1 | 0.5 ± 0.1 | dimerization was effectively blocked; also recorded: disrupt protease dimerization |  |  | 0.3 ± 0.2 | 0.2 ± 0.1 |  |  | 0.4 |  |  | 
Cc1cccc(C)c1OCC(=O)N[C@@H](Cc1ccccc1)[C@@H](O)C[C@H](Cc1ccccc1)NC(=O)[C@H](C(C)C)N1CCCNC1=O [LPV, lopinavir] |  |  |  | 3.3 ± 0.5 | 7.3 ± 0.6 | None |  |  |  | 5.3 ± 0.4 | 7 ± 1 | 4.9 ± 0.8 |  | 31 ± 9 |  | 
CC(C)c1nc(CN(C)C(=O)N[C@H](C(=O)N[C@@H](Cc2ccccc2)C[C@H](O)[C@H](Cc2ccccc2)NC(=O)OCc2cncs2)C(C)C)cs1 [RTV, ritonavir] |  |  |  | 30 ± 9 | 39 ± 4 | None |  |  |  | 23 ± 6 | 54 ± 1 | 260 ± 10 |  | 33 ± 2 |  | 
CC(C)(C)NC(=O)[C@@H]1C[C@@H]2CCCC[C@@H]2CN1C[C@@H](O)[C@H](Cc1ccccc1)NC(=O)[C@H](CC(N)=O)NC(=O)c1ccc2ccccc2n1 [SQV, Saquinavir] | 2050 | 8 ± 1 | 4.3 ± 0.2 | 3 ± 0.1 |  | None | 1.11±0.15 | none of these 4 PIs inhibited protease dimerization | 7 ± 2 |  |  |  |  |  | 6.7 ± 0.8 | 8.3 ± 0.5
Cc1c(O)cccc1C(=O)N[C@@H](CSc1ccccc1)[C@H](O)CN1C[C@H]2CCCC[C@H]2C[C@H]1C(=O)NC(C)(C)C [NFV, Nelfinavir] |  |  |  | 29 ± 4 | 37 ± 7 | None |  | none of these 4 PIs inhibited protease dimerization |  | 18 ± 4 | 32 ± 4 | 240 ± 9 |  | 33 ± 7 |  | 
CC(C)CN(C[C@@H](O)[C@H](Cc1ccccc1)NC(=O)O[C@H]1CCOC1)S(=O)(=O)c1ccc(N)cc1 [APV, Amprenavir] |  |  |  | 21 ± 6 | 33 ± 5 |  |  |  |  | 25 ± 6 | 36 ± 2 | 570 ± 10 |  |  |  | 
